According to patent US20160106102A1, “KNOWN AND NEW HETEROCYCLIC COMPOUNDS AS PEST CONTROL AGENTS” (BAYER CROPSCIENCE AKTIENGESELLSCHAFT, priority 2013, published 2016):
Like-named read-outs stand apart in the source and are kept apart here.

Assays:
Myzus persicae [1] = assay: Myzus persicae - spray test; format: in vivo; conditions: application rate of 500 g/ha, after 6 days, sprayed Chinese cabbage leaf discs infested by all stages, 100% = all aphids killed; for pest or weed control at 500 g/ha: Myzus persicae, foliar, 144 h, read-out: efficacy in %
Method in brief: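 Chinese cabbage leaf discs infested with all stages of green peach aphid sprayed with compound in acetone/DMF formulation with alkylaryl polyglycol ether emulsifier, diluted in emulsifier-containing water. Efficacy (% aphids killed) assessed after 6 days.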

[2] = log P determination by LC-MS in the acidic range; format: physicochemical; conditions: for log P (acid): LC-MS in the acidic range
Description: The LC-MS determination in the acidic range is effected at pH 2.7 using 0.1% aqueous formic acid and acetonitrile (contains 0.1% formic acid) as eluents, linear gradient from 10% acetonitrile to 95% acetonitrile. Alternatively, the determination is effected in the acidic range at pH 2.3 using 0.1% aqueous phosphoric acid and acetonitrile as eluents; linear gradient from 10% acetonitrile to 95% acetonitrile.

Myzus persicae [3] = assay: Myzus persicae - sachet test; format: in vivo; conditions: 100% = all animals killed; for pest or weed control at 6 ppm / pest or weed control at 30 ppm: Myzus persicae, read-out: efficacy (kill in %)
Method in brief: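 Green peach aphids feed through a sealed sachet on nutrient medium containing the water-diluted formulation (solvents: 2% N-methylpyrrolidone, 2% diacetone alcohol). Percent mortality read after the chosen time; 100% means all animals killed.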

[4] = pH 2.7, LC-MS in the acidic range, read-out: log P (acid)
[5] = pH 2.7, values given in the synthesis examples and NMR lists, read-out: HPLC-MS: log P
[6] = application rate of 6 ppm in nutrient medium
[7] = application rate of 30 ppm in nutrient medium

chromatographic logP [2, 4] | chromatographic logP [2, 5] | log P (acid) [2] | SMILES | pest or weed control at 500 g/ha (Myzus persicae [1]) [%] | pest or weed control at 6 ppm (Myzus persicae [3]; [6]) [%] | pest or weed control at 30 ppm (Myzus persicae [3]; [7]) [%] | efficacy in % (Myzus persicae [1]) [%] | efficacy (kill in %) (Myzus persicae [3]; [6]) [%] | efficacy (kill in %) (Myzus persicae [3]; [7]) [%]
1.49 | 1.49 |  | CCSCn1nc(NC(=O)c2cccnc2)cc1C [Compound I-1-242, N-{1-[(Ethylsulphanyl)methyl]-5-methyl-1H-pyrazol-3-yl}nicotinamide] | 100 | 100 | 100 |  |  | 
 |  | 0.19 | Cc1cc(NC(=O)c2cccnc2)nn1C[S+](C)[O-] (stereo not shown) [Compound I-1-243] |  |  |  | 100 | 100 | 100
 |  | 0.59 | Cc1cc(NC(=O)c2cccnc2)nn1CS(C)(=O)=O [Compound I-1-244] |  |  |  | 90 | 100 | 100
 |  | 0.45 | CC[S+]([O-])Cn1nc(NC(=O)c2cccnc2)cc1C (stereo not shown) [Compound I-1-245] |  |  |  | 100 | 100 | 100
0.83 | 0.83 |  | CCS(=O)(=O)Cn1nc(NC(=O)c2cccnc2)cc1C [Compound I-1-246, N-{1-[(Ethylsulphonyl)methyl]-5-methyl-1H-pyrazol-3-yl}nicotinamide] | 100 | 100 | 100 |  |  | 
 |  | 1.03 | Cc1cc(NC(=O)c2cccnc2)nn1S(C)(=O)=O [Compound I-1-277] |  |  |  | 100 | 100 | 100
 |  | 1.44 | Cc1cc(NC(=O)c2cccnc2)nn1Cc1nnc(C(C)(C)C)o1 [Compound I-1-281] |  |  |  | 90 | 80 | 100
 |  | 1.19 | Cc1cc(Cn2nc(NC(=O)c3cccnc3)cc2C)no1 [Compound I-1-283] |  |  |  | 100 | 100 | 100
 |  | 1.71 | Cc1cc(NC(=O)c2cccnc2)nn1Cc1noc(C(C)(C)C)n1 [Compound I-1-285] |  |  |  | 90 | 100 | 100

Further lines, the compound ahead of its results:

SMILES | chromatographic logP [2, 4] | chromatographic logP [2, 5] | log P (acid) [2] | pest or weed control at 500 g/ha (Myzus persicae [1]) [%] | pest or weed control at 6 ppm (Myzus persicae [3]; [6]) [%] | pest or weed control at 30 ppm (Myzus persicae [3]; [7]) [%] | efficacy in % (Myzus persicae [1]) [%] | efficacy (kill in %) (Myzus persicae [3]; [6]) [%] | efficacy (kill in %) (Myzus persicae [3]; [7]) [%]
Cc1cc(NC(=O)c2cccnc2)nn1C(=O)OCC(F)(F)F [Compound I-1-259] |  |  | 1.79 |  |  |  | 90 | 100 | 100
Cc1cc(NC(=O)c2cccnc2)nn1CC(=O)C1(Cl)CC1 [Compound I-1-260] |  |  | 1.38 |  |  |  | 90 | 100 | 100
COCC(=O)n1nc(NC(=O)c2cccnc2)cc1C [Compound I-1-261] |  |  | 1.17 |  |  |  | 100 | 100 | 100
Cc1cc(N(CC#N)C(=O)c2cccnc2)nn1Cc1ncccn1 [Compound I-1-262] |  |  | 0.84 |  |  |  | 90 | 100 | 100
C#CCN(C(=O)c1cccnc1)c1cc(C)n(Cc2ncccn2)n1 [Compound I-1-264] |  |  | 0.98 |  |  |  | 90 | 100 | 100
CSCCC(=O)n1nc(NC(=O)c2cccnc2)cc1C [Compound I-1-266] |  |  | 1.87 |  |  |  | 90 | 100 | 100
Cc1cc(NC(=O)c2cccnc2)nn1C(=O)CCS(C)(=O)=O [Compound I-1-268] |  |  | 1.04 |  |  |  | 100 | 100 | 100
Cc1cc(NC(=O)c2cccnc2)nn1S(=O)(=O)c1ccccn1 [Compound I-1-279] |  |  | 1.51 |  |  |  | 90 | 100 | 100
